Experimental data from US20090203716A1, “Pyrimidine low molecular weight ligands for modulating hormone receptors” (The Government of the United States of America as …, priority 2006, published 2009).

Key:
[1] = target: T1, TSHR (Homo sapiens, UniProt P16473); test: competition with 125I-labeled TSH for binding to TSHR
[2] = target: T1, TSHR; test: inhibition of TSH-mediated cAMP response in HEK-EM 293 cells stably expressing TSHR; format: cell-based; parameters: expressed in transfected cells
Method: (§1) Transiently transfected cells were cultured for 48 hours before the cAMP assay. HEK-EM 293 cells stably expressing TSHR, LHCGR or FSHR were seeded into 24-well plates with a density of 2.2×10^5 cells/well 24 hours before the cAMP assay. After removal of growth medium, cells were incubated for 1 hour in HBSS (Cellgro) with 10 mM HEPES (Cellgro) containing 1 mM 3-isobutyl-1-methylxanthine (IBMX) (Sigma) and the ligand of interest in a humidified 5% CO2 incubator at 37° C. The intracellular cAMP content was determined with the cAMP Biotrak Enzymeimmunoassay (EIA) System (GE Healthcare). Data were analyzed using GraphPad Prism 4 for Windows. Receptor expression was measured as described in Jaschke et al., J Biol Chem 281:9841-9844.
The TSH-mediated cAMP response of TSHR was inhibited by a maximum of 70.8±5.5% at 30 μM compound 52. […] Compound 52 has no activity at FSHR.
To exclude the possibility that compound 52 might be acting independently of TSHR by building aggregates with TSH, thereby inhibiting the TSH-induced response, tests were conducted for a possible aggregation between these two ligands. Compound 52 and TSH were preincubated for up to 15 minutes before addition to HEK-EM 293 cells stably expressing TSHR. […] There was no difference in the antagonistic effect whether TSH and compound 52 were preincubated together or not (data not shown) thereby excluding the possibility that its effect was caused by aggregation with TSH.

[3] = target: T2, human TSH receptor (Homo sapiens, UniProt P16473); test: intracellular cAMP accumulation, agonism at TSHR stably expressed in HEK EM 293 cells; format: cell-based; settings: cAMP
T2 construct: expressed in transfected cells
Method: With reference to Table 1, exemplary disclosed compounds were evaluated against human TSH receptor and human LHCG receptor that were stably expressed in HEK 293 EM cells as previously described by Libert et al. (Biochem. Biophys. Res. Commun. 1989, 165, 1250-1255); and by Schulz et al. (Mol. Endocrinol. 1999, 13, 181-190). Cell surface expression of TSH receptor and LHCG receptor were determined via FACS analysis (Kleinau, G.; Jäschke, H.; Neumann, S.; Lättig, S.; Paschke, R.; Krause, G. J. Biol. Chem. 2004, 279, 51590-51600). Agonism of compounds 3-20 were determined via measurement of intracellular cyclic AMP accumulation. […] For example, […] certain compounds disclosed herein exerted no discernible effect on the FSH receptor.
Cells were cultured for 48 h in 24-well plates before incubation for 1 h in serum-free DMEM containing 1 mM 3-isobutyl-1-methylxanthine (IBMX) (SIGMA) and bovine TSH (1.8 μM) (SIGMA) or human LH (1000 ng/ml) (Dr. A. Parlow, NIDDK National Hormone and Pituitary Program) or compounds 3-19 (0-100 μM) in a humidified 5% CO2 incubator. Following aspiration of the medium after incubation with compounds, cells were lysed using lysis buffer 1 of the cAMP Biotrak Enzymeimmunoassay (EIA) System (Amersham Biosciences). The cAMP content of the cell lysate was determined using the manufacturer's protocol. The efficacy of receptor activation by small molecule modulators is expressed as % of maximum response of LHCG receptor or TSH receptor to LH or TSH, respectively. The potency (EC50) was obtained from dose response curves (0-100 μM compound) by data analysis with GraphPad Prism 4 for Windows. With reference to FIG. 1, intracellular cAMP production was determined in response to 100 μM of each compound and is expressed as % of maximum response of TSHR/LHCGR to TSH (100 mU/ml)/LH (1000 ng/ml). The data are presented as mean±SEM of two independent experiments, each performed in duplicate.
as §1

[4] = target: T3, TSHR mutant Y7.42A (Homo sapiens, UniProt P16473, Y667A); test: cAMP production in HEK-EM 293 cells transiently expressing TSHR mutant Y7.42A; format: cell-based; settings: 30 μM compound
T3 construct: expressed in transfected cells; host or cells: HEK-EM 293 (transient, FuGENE 6)
Method: HEK-EM 293 cells were grown in Dulbecco's modified Eagle's Medium (DMEM) supplemented with 10% fetal bovine serum, 100 units/ml penicillin and 10 μg/ml streptomycin (Life Technologies Inc.) at 37° C. in a humidified 5% CO2 incubator. Cells were transiently transfected with wild type TSHR and mutant receptors in 24-well plates (7.5×10^4 cells per well) with 0.4 μg DNA/well using FuGENE™ 6 reagent (Roche) according to the manufacturer's protocol.
The M9 mutant is described in Jaschke et al., J Biol Chem 281:9841-9844. The Y7.42A mutant was introduced into hTSHR-pcDNA3.1 via the QuickChange XL Site-Directed Mutagenesis kit (Stratagene). The construct was verified by sequencing (MWG Biotech).
as §1, with “After removal of growth medium, cells were incubated for 1 hour in HBSS (Cellgro) with 10 mM HEPES (Cellgro) containing 1 mM 3-isobutyl-1-methylxanthine (IBMX) (Sigma) and the ligand of interest in a humidified 5% CO2 incubator at 37° C.” left out

[5] = target: T4, human LHCG receptor (Homo sapiens, UniProt P22888); test: intracellular cAMP accumulation, agonism at LHCGR stably expressed in HEK EM 293 cells; format: cell-based; settings: full activation of LHCGR by LH set at 100%
T4 construct: expressed in transfected cells
Method: With reference to Table 1, exemplary disclosed compounds were evaluated against human TSH receptor and human LHCG receptor that were stably expressed in HEK 293 EM cells as previously described by Libert et al. (Biochem. Biophys. Res. Commun. 1989, 165, 1250-1255); and by Schulz et al. (Mol. Endocrinol. 1999, 13, 181-190). Cell surface expression of TSH receptor and LHCG receptor were determined via FACS analysis (Kleinau, G.; Jäschke, H.; Neumann, S.; Lättig, S.; Paschke, R.; Krause, G. J. Biol. Chem. 2004, 279, 51590-51600).
Following aspiration of the medium after incubation with compounds, cells were lysed using lysis buffer 1 of the cAMP Biotrak Enzymeimmunoassay (EIA) System (Amersham Biosciences). The cAMP content of the cell lysate was determined using the manufacturer's protocol. […] The potency (EC50) was obtained from dose response curves (0-100 μM compound) by data analysis with GraphPad Prism 4 for Windows. […] The data are presented as mean±SEM of two independent experiments, each performed in duplicate.
as §1

T1 sequence (P16473 21-764): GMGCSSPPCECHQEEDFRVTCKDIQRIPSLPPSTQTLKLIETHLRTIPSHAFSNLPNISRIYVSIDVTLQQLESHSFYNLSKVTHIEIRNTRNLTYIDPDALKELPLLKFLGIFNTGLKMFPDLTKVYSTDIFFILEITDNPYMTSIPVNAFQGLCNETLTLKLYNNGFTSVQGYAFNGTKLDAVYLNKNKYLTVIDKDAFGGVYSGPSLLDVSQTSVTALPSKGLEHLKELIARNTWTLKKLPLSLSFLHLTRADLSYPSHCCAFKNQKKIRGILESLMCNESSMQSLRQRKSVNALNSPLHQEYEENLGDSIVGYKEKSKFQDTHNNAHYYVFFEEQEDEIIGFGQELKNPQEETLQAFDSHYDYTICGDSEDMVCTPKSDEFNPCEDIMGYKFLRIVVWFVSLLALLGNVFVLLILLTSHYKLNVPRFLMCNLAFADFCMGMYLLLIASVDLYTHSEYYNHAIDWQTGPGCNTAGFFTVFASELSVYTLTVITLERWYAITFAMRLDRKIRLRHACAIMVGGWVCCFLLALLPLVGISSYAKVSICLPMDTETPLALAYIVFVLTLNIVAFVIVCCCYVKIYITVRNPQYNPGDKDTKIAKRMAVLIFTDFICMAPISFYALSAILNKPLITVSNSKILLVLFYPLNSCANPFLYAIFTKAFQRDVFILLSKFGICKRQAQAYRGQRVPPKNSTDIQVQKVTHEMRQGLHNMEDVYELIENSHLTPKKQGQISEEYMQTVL
T3 sequence (P16473 21-764 Y667A): as the sequence (P16473 21-764) above, with Y647A counted along it
T4 sequence (P22888 27-699): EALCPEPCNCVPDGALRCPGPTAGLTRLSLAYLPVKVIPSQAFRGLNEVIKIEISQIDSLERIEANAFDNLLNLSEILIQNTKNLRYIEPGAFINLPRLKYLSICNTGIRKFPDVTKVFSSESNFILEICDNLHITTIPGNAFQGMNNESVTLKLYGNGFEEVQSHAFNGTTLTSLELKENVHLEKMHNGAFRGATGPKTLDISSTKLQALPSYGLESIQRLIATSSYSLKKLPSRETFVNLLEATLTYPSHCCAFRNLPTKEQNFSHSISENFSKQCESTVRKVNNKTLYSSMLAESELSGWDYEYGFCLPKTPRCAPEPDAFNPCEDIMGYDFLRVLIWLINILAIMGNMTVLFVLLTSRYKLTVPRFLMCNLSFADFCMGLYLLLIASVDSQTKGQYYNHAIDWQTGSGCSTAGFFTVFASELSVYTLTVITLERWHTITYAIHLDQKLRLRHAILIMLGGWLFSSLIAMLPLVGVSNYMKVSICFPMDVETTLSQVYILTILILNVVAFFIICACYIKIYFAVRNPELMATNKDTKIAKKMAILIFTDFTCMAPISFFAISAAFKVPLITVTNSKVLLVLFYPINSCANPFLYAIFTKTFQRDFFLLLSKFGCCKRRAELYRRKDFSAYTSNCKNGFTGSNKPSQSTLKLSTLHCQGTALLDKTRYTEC
T2 sequence (P16473 21-764): as the sequence (P16473 21-764) above

SMILES: COC/C=C/c1ccc(-c2nc(SC)nc3sc(C(=O)NC(C)(C)C)c(N)c23)cc1 [Compound 52]
- competition with 125I-labeled TSH for binding to TSHR [1]: does not compete
- antagonistic activity at TSHR in cAMP assay [2]: antagonist
- selectivity toward TSHR compared to LHCGR and FSHR [2]: selective toward TSHR
- antagonistic effect with or without preincubation with TSH (aggregation test) ([2]; 30 μM compound, 1.8 nM TSH, preincubated up to 15 minutes): no difference
- inhibition at 30 µM ([2]; HEK-EM293, read-out: maximum inhibition of TSH-mediated cAMP response of TSHR): 70.8 ± 5.5%
- IC50 ([2]; with EC50 dose of TSH): 4.2 µM
- agonist activity at TSHR [3]: no agonist activity
- cAMP production, fold over TSHR basal activity, Y7.42A [4]: 3.2±0.9 fold
- activity at LHCGR compared to full activation by LH [5]: 17.25±2.25%
